Measurements as given in patent US20130217634A1, “PEPTIDES ABLE TO INTERFERE WITH THE INHIBITING ACTIVITY OF MDM2/MDM4 HETERODIMER TOWARDS P53 AND USE THEREOF FOR CANCER TREATMENT” (UNIVERSITA' DEGLI STUDI DI PERUGIA, priority 2012, published 2013).
*: point of attachment. FITC = O=C1OC2(c3ccc(O)cc3Oc3cc(O)ccc32)c2ccc(NC(=S)*)cc21; Ahx = NCCCCCC(=O)O

Columns and labels:
p53/MDM4 binding = target: T1, p53/MDM4 binding (Homo sapiens, UniProt O15151); assay: Immunoprecipitation / western blot of p53 binding to MDM4 after peptide transfection in HCT116 cells; format: cell-based
T1 construct: MDM4 or MDM2 immunoprecipitation after peptide transfection in HCT116 cancer cell line; endogenous in cells; host or cells: HCT116 wt (p53+/+) colon carcinoma cells
T1 sequence (O15151 whole entry): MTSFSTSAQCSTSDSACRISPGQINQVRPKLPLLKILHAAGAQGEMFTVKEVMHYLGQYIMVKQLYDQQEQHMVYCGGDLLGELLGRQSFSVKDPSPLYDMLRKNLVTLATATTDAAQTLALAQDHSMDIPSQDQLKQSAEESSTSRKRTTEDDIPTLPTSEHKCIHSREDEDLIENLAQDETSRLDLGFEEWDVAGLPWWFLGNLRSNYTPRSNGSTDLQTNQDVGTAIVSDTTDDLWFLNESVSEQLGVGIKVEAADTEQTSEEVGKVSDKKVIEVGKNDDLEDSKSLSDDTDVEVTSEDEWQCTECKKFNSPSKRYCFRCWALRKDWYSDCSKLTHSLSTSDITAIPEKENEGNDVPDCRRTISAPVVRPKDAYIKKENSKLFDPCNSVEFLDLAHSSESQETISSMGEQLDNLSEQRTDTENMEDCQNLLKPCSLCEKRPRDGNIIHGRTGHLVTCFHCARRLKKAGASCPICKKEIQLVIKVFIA
T1 sequence (P04637 whole entry partner): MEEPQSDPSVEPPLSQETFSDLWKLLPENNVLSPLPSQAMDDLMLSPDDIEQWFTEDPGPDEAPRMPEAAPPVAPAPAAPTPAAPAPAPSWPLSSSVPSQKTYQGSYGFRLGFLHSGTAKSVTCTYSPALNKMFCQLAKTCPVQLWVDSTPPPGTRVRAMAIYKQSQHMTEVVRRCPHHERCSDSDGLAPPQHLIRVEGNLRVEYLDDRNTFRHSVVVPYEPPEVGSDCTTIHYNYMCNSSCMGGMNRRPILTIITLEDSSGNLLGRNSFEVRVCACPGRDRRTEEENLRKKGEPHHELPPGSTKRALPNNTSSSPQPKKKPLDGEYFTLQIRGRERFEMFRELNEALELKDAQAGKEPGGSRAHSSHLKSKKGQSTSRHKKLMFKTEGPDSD
Experimental: Cells have been lysed using Saito lysis modified reagent (50 mM Tris-HCl, pH 7.4, 0.15 M NaCl, 0.5% Triton-X100, 5 mM EDTA). For p53 immunoprecipitation and BCL2 and MDM4 analysis EBC modified solution has been used (50 mM Tris-HCl, pH 7.4, 0.12 M NaCl, 0.4% NP-40, 1 mM EDTA, 1 Mm β-mercaptoethanol).
400 μg of total protein extract has been incubated with protein G (Invitrogen) for 2 hours under stirring at 4° C. in order not specific binding of proteins with said substrate can occur. Afterwards the cellular extract has been centrifuged, not specific complexes removed with precipitate and supernatant has been incubated for 16 hours with specific antibody. Successively, protein G has been added and incubated for 2 hour at 4° C. […]
(§1) It has been investigated whether peptides were able to enter the cell simply by addition thereof at given concentration (5 μM) to cell culture medium and analyzing for the presence thereof by confocal and fluorescence microscopy, each peptide being labeled with green fluorophore (FAM). It has been observed that peptides were detected in cells only after transfection by liposomes. Successively, the ability of peptides to disrupt the binding by MDM4 or MDM2 immunoprecipitation after peptide transfection in HCT116 cancer cell line, and detection of presence of corresponding partner in immunocomplex by western blot assay have been evaluated. […]

HCT116 wt cells = assay: Cell death by cytofluorimetric analysis (Propidium Iodide) of cells transfected with FITC tagged peptides; format: cell-based; details: for induction of apoptotic response / cellular apoptosis: HCT116 cells transfected with peptide
Experimental: (§2) Cytofluorimetric analysis was carried out on HCT116 wt and p53−/− cells transfected with FITC tagged peptides and stained with Propidium Iodide (PI). Percentage of dead cells was evaluated specifically among the transfected cells (green population).
(§3) Cytofluorimetric analysis was performed on HCT116 wt and p53−/− cells transfected with FITC tagged peptides and stained with Propidium Iodide (PI). Percentage of dead cells was evaluated specifically among the transfected cells (green population).
(§4) It has been investigated whether peptides were able to enter the cell simply by addition thereof at given concentration (5 μM) to cell culture medium and analyzing for the presence thereof by confocal and fluorescence microscopy, each peptide being labeled with green fluorophore (FAM). It has been observed that peptides were detected in cells only after transfection by liposomes. Successively, the ability of peptides to disrupt the binding by MDM4 or MDM2 immunoprecipitation after peptide transfection in HCT116 cancer cell line, and detection of presence of corresponding partner in immunocomplex by western blot assay have been evaluated. Two HCT116 wild type and HCT116 p53−/− syngeneic cell lines have been used in order to understand also observed effect dependence on the presence of p53.

MDM4/MDM2 complex = target: T2, MDM4/MDM2 complex (Homo sapiens, UniProt O15151+Q00987); assay: Immunoprecipitation / western blot of MDM4/MDM2 complex after peptide transfection in HCT116 cells; format: cell-based; details: HCT116 wild type and p53−/−
T2 construct: immunoprecipitation of MDM4 has been carried out on cell lysates; endogenous in cells; host or cells: HCT116 wt and HCT116 p53-/- colon carcinoma cells
T2 sequence (O15151 whole entry): as the sequence (O15151 whole entry) above
T2 sequence (Q00987 whole entry): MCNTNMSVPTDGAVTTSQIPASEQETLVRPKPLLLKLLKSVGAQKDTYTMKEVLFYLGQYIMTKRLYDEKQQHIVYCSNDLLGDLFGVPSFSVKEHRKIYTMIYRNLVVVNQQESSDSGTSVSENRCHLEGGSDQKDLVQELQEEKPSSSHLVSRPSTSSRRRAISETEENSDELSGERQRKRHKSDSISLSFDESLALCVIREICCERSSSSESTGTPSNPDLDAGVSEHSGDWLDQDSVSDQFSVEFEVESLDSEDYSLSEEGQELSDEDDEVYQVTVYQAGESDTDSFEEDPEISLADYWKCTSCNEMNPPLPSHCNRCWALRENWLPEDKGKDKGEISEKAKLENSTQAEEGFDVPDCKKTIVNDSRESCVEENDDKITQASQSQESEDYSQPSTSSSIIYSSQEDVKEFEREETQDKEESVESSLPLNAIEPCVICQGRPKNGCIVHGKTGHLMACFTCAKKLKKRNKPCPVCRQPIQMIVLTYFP
Excerpt: Transient transfection of peptides has been carried out in HCT116 wt and p53−/− colon carcinoma cell lines and the immunoprecipitation of MDM4 has been carried out on cell lysates in order to detect the presence of MDM2 within the immunocomplex, by western blot analysis.
Transient transfection of peptides has been carried out in HCT116 wt and p53−/− colon carcinoma cell lines and the immunoprecipitation of MDM4 has been performed on cell lysates in order to detect the presence of MDM2 within the immunocomplex by western blot analysis.
Cells have been lysed using Saito lysis modified reagent (50 mM Tris-HCl, pH 7.4, 0.15 M NaCl, 0.5% Triton-X100, 5 mM EDTA). […]
as §1

recombinant GST-MDM2 = target: T3, recombinant GST-MDM2 (Homo sapiens, UniProt Q00987); assay: In vitro ubiquitination assay of p53 performed by recombinant GST-MDM2; format: biochemical
T3 construct: GST (N)
T3 sequence (Q00987 whole entry): as above
Excerpt: (§5) Further experiments have been performed to define the role of peptide 3 composition in its molecular and biological activity. […] Supporting these new experimental data about the importance of Isoleucine 489 and Phenylalanine 488, molecular dynamic simulations have shown that these residues engage in specific hydrophobic and aromatic interactions with MDM2 (FIG. 11). In particular, Isoleucine 489 is harbored in a hydrophobic cleft composed of Alanine 434, Isoleucine 435 and Leucine 458 of MDM2 protein. Likewise, Phenylalanine 488 forms aromatic interactions with a Histidine residue (HID-457) of MDM2 protein.

[1] = test system: HCT116 wt and p53−/− cells; assay: TUNEL assay of apoptosis in cells transfected with FITC tagged peptides; format: cell-based; details: among transfected (green) cells
Experimental: In order to specifically detect apoptotic cells, TUNEL assay was carried out in HCT116 wt and p53−/− cells transfected with FITC tagged peptides. Percentage of apoptotic cells was evaluated specifically among the transfected cells (green population).
as §5

HCT116 p53−/− cells = assay: Cell death by cytofluorimetric analysis (Propidium Iodide) of cells transfected with FITC tagged peptides; format: cell-based; details: HCT116 p53−/− compared with wt
Experimental: as §2, §3, §4

| Substance | effect on binding of p53 to MDM4 (p53/MDM4 binding) | induction of apoptotic response / cellular apoptosis (HCT116 wt cells) | cell death response in comparison to the control Scramble peptide (HCT116 wt cells; HCT116 p53+/+ cells) | ability to dissociate MDM4/MDM2 complex (MDM4/MDM2 complex) | inhibition of ubiquitination of p53 (recombinant GST-MDM2) | induction of apoptosis (TUNEL) [1] | induced death in p53 lacking versus p53 harboring cells (HCT116 p53−/− cells) |
| --- | --- | --- | --- | --- | --- | --- | --- |
| {FITC-Ahx}-ESSLPLNAIEPS-NH2 [Peptide 1] | able to preserve the binding of p53 to MDM4 | induce a significant apoptotic response | significantly higher in comparison to the control Scramble peptide | suitable to dissociate said two proteins | – | – | – |
| AIKIFVKVLEIQ (peptide composed with the same aminoacids of SEQ ID NO3 but arranged in different order) [Peptide SC3B] | – | – | – | – | ineffective | – | – |
| VQEAFKLIKIVI (peptide composed with the same aminoacids of SEQ ID NO3 but arranged in different order) [Peptide SC3A] | – | – | – | – | ineffective | – | – |
| KEIQLVIKVAEA (MDM4 sequence of the interaction domain between MDM4 and MDM2 from aa 479 to aa 490 of MDM4 in which FI in positions 10 and 11 of said sequence has been substituted with AE) [Peptide 3D, reference compound] | – | – | – | – | completely ineffective | completely ineffective | – |
| FITC-Ahx-KEIQLVIKVFIA-CONH2 (HELM PEPTIDE1{[O=C1OC2(c3ccc(O)cc3Oc3cc(O)ccc32)c2ccc(NC(=S)[*:2])cc21].[O=C(CCCCCN[*:1])[*:2]].K.E.I.Q.L.V.I.K.V.F.I.A.[am]}$$$$V2.0; SMILES CC[C@H](C)[C@H](NC(=O)[C@H](Cc1ccccc1)NC(=O)[C@@H](NC(=O)[C@H](CCCCN)NC(=O)[C@@H](NC(=O)[C@@H](NC(=O)[C@H](CC(C)C)NC(=O)[C@H](CCC(N)=O)NC(=O)[C@@H](NC(=O)[C@H](CCC(=O)O)NC(=O)[C@H](CCCCN)NC(=O)CCCCCNC(=S)Nc1ccc2c(c1)C(=O)OC21c2ccc(O)cc2Oc2cc(O)ccc21)[C@@H](C)CC)C(C)C)[C@@H](C)CC)C(C)C)C(=O)N[C@@H](C)C(N)=O) [Peptide 3, FITC-Ahx tagged, C-terminal amide] | does not dissociate p53 from MDM4 | highly effective in inducing cellular apoptosis | – | highly effective in dissociating said two molecules | inhibit the ubiquitinatin activity of MDM2 towards p53 | induce apoptosis | meaningfully lower in p53 lacking than harboring cells |
